Common to all, as to assay type: cell-based
Assay [1] deals with anaplastic large cell lymphoma cells (Karpas299). Kind of assay: In vitro potency (CellTiter-Glo, 96 h) on Karpas299. The conditions noted are these: Homo sapiens, KARPAS-299, 96 h, read-out: Karpas299 IC50. As for the experimental part: (§1) In vitro potency was assessed on multiple cancer cell lines. All cell lines were authenticated by STR profiling at IDEXX Bioresearch and cultured for no more than 2 months after resuscitation. Cells cultured in log-phase growth were seeded for 24 hours in 96-well plates containing […] RPMI 1640 supplemented with 20% FBS. Serial dilutions of antibody-drug conjugates in cell culture media were prepared at 4x working concentrations, and 50 μL of each dilution was added to the 96-well plates. Following addition of test articles, cells were incubated with test articles for 4 days at […]. After 96 hours, growth inhibition was assessed by CellTiterGlo® (Promega, Madison, WI) and luminescence was measured on a plate reader.
(§2) Cell viability was determined by CellTiter-Glo staining after 96h exposure to ADC. ND=Not Determined. In the following tables, “Ex_” refers to a drug linker number. For example, “Ag4-Ex_4a” refers to a conjugate of an Ag4 antibody with drug linker 4a.

Assay [2] has as its system anaplastic large cell lymphoma cells (DELBVR). Kind of assay: In vitro potency (CellTiter-Glo, 96 h) on DELBVR. Particulars: 96 h, read-out: DELBVR IC50. As for the experimental part: as §1, §2
For assay [3], the system named is acute myeloid leukemia cells (MOLM-13). Put plainly: In vitro potency (CellTiter-Glo, 96 h) on MOLM-13. Particulars: Homo sapiens, MOLM-13, 96 h, read-out: MOLM-13 IC50. As to the method: as §1, §2
Assay [4] deals with melanoma cells (A2058). Put plainly: In vitro potency (CellTiter-Glo, 96 h) on A2058. Particulars: Homo sapiens, A2058, 96 h, read-out: A2058 IC50. As to the method:
as §1, §2

For assay [5], the system named is B-lymphocyte cancer cells (SU-DHL4). Put plainly: In vitro potency (CellTiter-Glo, 96 h) on SU-DHL4. Particulars: Homo sapiens, SU-DHL-4, 96 h, read-out: SU-DHL-4 IC50. As to the method: as §1, §2
For assay [6], the system named is pancreatic cancer cells (BxPC3). Put plainly: In vitro potency (CellTiter-Glo, 96 h) on BxPC3. The conditions noted are these: Homo sapiens, BXPC-3, 96 h, read-out: BxPC3 IC50. As to the method:
as §1, §2

The test system of assay [7] is breast cancer cells (MDA-MB-231). Kind of assay: In vitro potency (CellTiter-Glo, 96 h) on MDA-MB-231. The conditions noted are these: Homo sapiens, MDA-MB-231, 96 h, read-out: MDAMB 231 IC50. As for the experimental part: as §1, §2
Assay [8] deals with Hodgkin's lymphoma cells (L540cy). Kind of assay: In vitro potency (CellTiter-Glo, 96 h) on L540cy. Particulars: L540cy, 96 h, read-out: L540cy IC50. As for the experimental part: as §1, §2
Assay [9] relates to anaplastic large cell lymphoma cells (DEL). Put plainly: In vitro potency (CellTiter-Glo, 96 h) on DEL. The conditions noted are these: 96 h, read-out: DEL IC50. As for the experimental part:
as §1, §2

The nature of assay [10]: In vitro potency (CellTiter-Glo, 96 h) on Ls174T. Particulars: Homo sapiens, LS174T, read-out: Ls174T IC50. As for the experimental part: as §1, §2
The test system of assay [11] is renal carcinoma cells (786-O). Put plainly: In vitro potency (CellTiter-Glo, 96 h) on 786-O. Particulars: Homo sapiens, 786-0, 96 h, read-out: 786-O IC50. As to the method:
as §1, §2

Assay [12] relates to non-small-cell lung cancer cells (Calu1). Kind of assay: In vitro potency (CellTiter-Glo, 96 h) on Calu1. Particulars: Homo sapiens, Calu-1, 96 h, read-out: Calu1 IC50. As for the experimental part:
as §1, §2

Where [13] appears, read: CPT free drugs, CellTiter-Glo after 96 h exposure.

Read-outs that look alike come from different tables or passages of the source.

Regarding `CC[C@@]1(O)C(=O)OCc2c1cc1n(c2=O)Cc2c-1nc1cc(F)c(SC)cc1c2CN` [Compound 2at], the IC50 stood at 38 nM in [1] (setting [13]); 8 nM in assay [2] (setting [13]); 264 nM in assay [3] (setting [13]); 20 nM in assay [4] (setting [13]); 23 nM in [5] (setting [13]); 84 nM in [6] (setting [13]). In addition, the IC50 in assay [7] (setting [13]) is 21 nM; in assay [8] (setting [13]), 4 nM; in assay [9] (setting [13]), 11 nM; in assay [10] (setting [13]), 30 nM; in [11] (setting [13]), 50 nM.
On to `CC[C@@]1(O)C(=O)OCc2c1cc1n(c2=O)Cc2c-1nc1cc(F)c(C)c(C#N)c1c2CN` [Compound 16], for which the IC50 came to 7 nM in assay [1]; 1 nM in [2]; 67 nM in [12]; 30 nM in [3]; 3 nM in [4]; 3 nM in assay [5]. Further, the IC50 turned out to be 38 nM in [7]; 5 nM in assay [8]; 1 nM in assay [9]; 6 nM in assay [10] (96 h); 8 nM in [11].
Consider `CC[C@@]1(O)C(=O)OCc2c1cc1n(c2=O)Cc2c-1nc1cc3c(cc1c2CNCCOC)OCO3` [Compound 7ag], for which the IC50 in assay [1] was 1 nM; in assay [2], 0.3 nM; in assay [12], 6 nM; in assay [3] it was 2 nM; in assay [4], 0.6 nM; in [5], 0.8 nM. Moreover, the IC50 in assay [7] came out at 9 nM; in [8], 0.9 nM; in [9], 0.3 nM; in [10] (96 h), 3 nM; in assay [11], 0.9 nM.
`CC[C@@]1(O)C(=O)OCc2c1cc1n(c2=O)Cc2c-1nc1cc(F)c(C)c(-c3ccc(CO)s3)c1c2CN` [Compound 6e]: in assay [12], the IC50 worked out at 155 nM.
On to `CC[C@@]1(O)C(=O)OCc2c1cc1n(c2=O)Cc2c-1nc1cc(F)c(C)c(C3=CCSCC3)c1c2CN` [Compound 6m], for which the IC50 is 12 nM in assay [1] (setting [13]); 6 nM in assay [2] (setting [13]); 35 nM in assay [12] (setting [13]); 7 nM in assay [3] (setting [13]); 7 nM in assay [4] (setting [13]); 5 nM in assay [5] (setting [13]). The IC50 in assay [7] (setting [13]) came out at 38 nM; in [8] (setting [13]), 8 nM; in assay [9] (setting [13]), 2 nM; in assay [10] (setting [13]) it was 22 nM.
Regarding `CC[C@@]1(O)C(=O)OCc2c1cc1n(c2=O)Cc2c-1nc1cc(F)c(C)c3c1c2[C@@H](NC(=O)CN)CC3` [Compound 13b], the IC50 was determined as 11 nM in [1] (setting [13]); 4 nM in assay [2] (setting [13]); 23 nM in [3] (setting [13]); 2 nM in assay [5] (setting [13]); 21 nM in assay [6] (setting [13]); 30 nM in assay [7] (setting [13]). Further, the IC50 turned out to be 6 nM in assay [8] (setting [13]), 1 nM in assay [9] (setting [13]), 58 nM in assay [10] (setting [13]) and 27 nM in assay [11] (setting [13]).
As to `CC[C@@]1(O)C(=O)OCc2c1cc1n(c2=O)Cc2c-1nc1cc(Br)c(OC)c(F)c1c2CN` [Compound 2ah], the IC50 in [1] (setting [13]) came out at 65 nM; in assay [2] (setting [13]) it was 11 nM; in assay [3] (setting [13]), 125 nM; in [5] (setting [13]), 29 nM; in assay [6] (setting [13]) it was 199 nM; in assay [7] (setting [13]), 149 nM. In addition, the IC50 worked out at 54 nM in assay [8] (setting [13]), 12 nM in [9] (setting [13]), 152 nM in assay [10] (setting [13]) and 108 nM in assay [11] (setting [13]).
With `CC[C@@]1(O)C(=O)OCc2c1cc1n(c2=O)Cc2c-1nc1cc3c(cc1c2CNC[C@H](O)CN1CCCCC1)OCO3` [Compound 7aa], the IC50 in assay [1] is 63 nM; in assay [2], 19 nM; in [3], 69 nM; in assay [5], 19 nM; in assay [6], 66 nM; in [7], 228 nM. For the same compound, the IC50 amounted to 51 nM in assay [8], 17 nM in assay [9], 188 nM in assay [10] (96 h) and 131 nM in [11].
Take `CC[C@@]1(O)C(=O)OCc2c1cc1n(c2=O)Cc2c-1nc1cc(F)c(C)c(-c3cccs3)c1c2CN` [Compound 6n]: the IC50 in assay [1] (setting [13]) is 24 nM; in [2] (setting [13]) it was 7 nM; in assay [12] (setting [13]), 56 nM; in assay [3] (setting [13]), 30 nM; in assay [4] (setting [13]), 16 nM; in assay [5] (setting [13]), 13 nM. Besides, the IC50 turned out to be 70 nM in assay [7] (setting [13]), 17 nM in assay [8] (setting [13]), 6 nM in [9] (setting [13]) and 47 nM in assay [10] (setting [13]).
As to `CC[C@@]1(O)C(=O)OCc2c1cc1n(c2=O)Cc2c-1nc1cc(F)c(C)c(Cl)c1c2CNC(=O)CN` [Compound 13a], the IC50 in [1] amounted to 1 nM; in [2], 1 nM; in assay [3], 2 nM; in [5] it was 1 nM; in assay [6] it was 5 nM; in assay [7] it was 5 nM. Further, the IC50 in assay [8] is 1 nM; in [9], 0.3 nM; in assay [10] (96 h) it was 44 nM; in assay [11] it was 6 nM.
On to `CC[C@@]1(O)C(=O)OCc2c1cc1n(c2=O)Cc2c-1nc1cc3c(cc1c2CNC1CCN(C)CC1)OCO3` [Compound 7w], for which the IC50 in assay [1] is 8 nM; in assay [2], 2 nM; in assay [3], 26 nM; in assay [5] it was 6 nM; in [6], 13 nM; in assay [7] it was 26 nM. Besides, the IC50 in [8] came out at 6 nM; in assay [9], 2 nM; in assay [10] (96 h), 16 nM; in assay [11] it was 15 nM.
Take `CC[C@@]1(O)C(=O)OCc2c1cc1n(c2=O)Cc2c-1nc1cc(F)c(C)c(-c3ccoc3)c1c2CN` [Compound 6p]: the IC50 came out at 3 nM in assay [1] (setting [13]); 2 nM in assay [2] (setting [13]); 8 nM in assay [12] (setting [13]); 3 nM in assay [3] (setting [13]); 2 nM in [4] (setting [13]); 1 nM in [5] (setting [13]). In addition, the IC50 is 10 nM in assay [7] (setting [13]), 2 nM in assay [8] (setting [13]), 0.9 nM in assay [9] (setting [13]) and 5 nM in assay [10] (setting [13]).
For the compound `CC[C@@]1(O)C(=O)OCc2c1cc1n(c2=O)Cc2c-1nc1cc3c(cc1c2CN1CCC(N)CC1)OCO3` [Compound 8f], the IC50 in assay [1] came out at 110 nM; in [2], 30 nM; in assay [3], 32 nM; in assay [5] it was 32 nM; in assay [6], 166 nM; in assay [7], 207 nM. In addition, the IC50 in assay [8] is 84 nM; in assay [9], 14 nM; in assay [10] (96 h) it was 236 nM; in [11], 267 nM.
`CC[C@@]1(O)C(=O)OCc2c1cc1n(c2=O)Cc2c-1nc1cc(F)c(C)c(-c3ccco3)c1c2CN` [Compound 6o]: the IC50 turned out to be 8 nM in assay [1] (setting [13]); 3 nM in [2] (setting [13]); 26 nM in [12] (setting [13]); 14 nM in assay [3] (setting [13]); 4 nM in assay [4] (setting [13]); 4 nM in [5] (setting [13]). Also, the IC50 in assay [7] (setting [13]) worked out at 35 nM; in [8] (setting [13]) it was 5 nM; in assay [9] (setting [13]) it was 2 nM; in assay [10] (setting [13]) it was 9 nM.

The record behind these values is patent publication US20230381321A1, “CAMPTOTHECIN CONJUGATES” (priority 2022, published 2023).
